Tests used:
chymotrypsin = chymotrypsin (Bos taurus, UniProt P00766); test: in vitro; details: isolated enzyme chymotrypsin, pH 7.8, Remaining peak area (%)/chymotrypsin
Summary of the method: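 RP-HPLC peak area tracked intact peptide after 37 °C digestion with chymotrypsin (0.05 μg/μL solution, 5 min preincubation). Samples were withdrawn at 1.5-60.0 min and stopped with 10% TFA.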

DPP-IV = DPP-IV (Homo sapiens, UniProt P27487); test: Tolerance of GLP-1 and its analogues to DPP-IV (RP-HPLC remaining peak area); assay type: in vitro ADME; details: peptide 25 μM, DPP-IV 0.5 ng/μL, 37° C.; for Remaining peak area (%)/DPP-IV: 0.0 h; for remaining at 0.5 h, 25 μM / remaining at 2 h, 25 μM / remaining at 4 h, 25 μM / remaining at 8 h, 25 μM / remaining at 12 h, 25 μM: isolated DPP-IV enzyme in buffer, pH 8
Chain of DPP-IV (P27487 whole entry, species assumed): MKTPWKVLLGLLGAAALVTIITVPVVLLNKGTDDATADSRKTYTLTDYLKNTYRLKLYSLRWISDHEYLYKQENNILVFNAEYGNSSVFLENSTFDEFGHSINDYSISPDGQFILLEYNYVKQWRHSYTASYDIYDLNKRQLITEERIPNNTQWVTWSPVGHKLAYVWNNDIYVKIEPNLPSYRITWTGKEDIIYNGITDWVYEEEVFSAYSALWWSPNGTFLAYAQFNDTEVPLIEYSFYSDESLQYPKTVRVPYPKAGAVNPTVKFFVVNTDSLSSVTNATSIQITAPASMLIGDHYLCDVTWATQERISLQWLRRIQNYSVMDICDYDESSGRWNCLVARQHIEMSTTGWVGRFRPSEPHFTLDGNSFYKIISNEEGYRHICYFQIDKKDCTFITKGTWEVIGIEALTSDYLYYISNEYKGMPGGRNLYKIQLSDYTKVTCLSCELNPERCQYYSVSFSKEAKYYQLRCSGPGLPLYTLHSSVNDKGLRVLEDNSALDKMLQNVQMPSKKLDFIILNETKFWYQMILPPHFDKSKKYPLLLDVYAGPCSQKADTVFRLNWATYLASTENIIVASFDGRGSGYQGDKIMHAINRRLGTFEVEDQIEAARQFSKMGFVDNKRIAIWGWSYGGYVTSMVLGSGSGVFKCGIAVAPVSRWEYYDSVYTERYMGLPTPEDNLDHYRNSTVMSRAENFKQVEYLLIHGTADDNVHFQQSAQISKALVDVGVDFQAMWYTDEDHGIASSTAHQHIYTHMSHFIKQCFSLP
Procedure: (§1) Mix by centrifugation at 8000 rpm for 30 seconds.
(2) Arrange a certain volume of 0.005 μg/μL DPP-IV solution in another sterile EP.

NEP24.11 = NEP24.11 (Homo sapiens, UniProt P08473); test: Tolerance of GLP-1 and its analogues to NEP24.11 (RP-HPLC remaining peak area); assay type: in vitro ADME; details: peptide 30 μM, NEP24.11 1.0 ng/μL, 37° C.; for Remaining peak area (%)/NEP24.11: 0.0 h; for remaining at 0.5 h, 30 μM / remaining at 2 h, 30 μM / remaining at 4 h, 30 μM / remaining at 8 h, 30 μM: isolated NEP24.11 enzyme in buffer; for remaining at 0.5 h, 30 μM: pH 7.4, 0.5 h; for remaining at 2 h, 30 μM: pH 7.4, 2.0 h; for remaining at 4 h, 30 μM: pH 7.4, 4.0 h; for remaining at 8 h, 30 μM: pH 7.4, 8.0 h, read-out: Remaining peak area (%)/NEP24.11
Chain of NEP24.11 (P08473 whole entry): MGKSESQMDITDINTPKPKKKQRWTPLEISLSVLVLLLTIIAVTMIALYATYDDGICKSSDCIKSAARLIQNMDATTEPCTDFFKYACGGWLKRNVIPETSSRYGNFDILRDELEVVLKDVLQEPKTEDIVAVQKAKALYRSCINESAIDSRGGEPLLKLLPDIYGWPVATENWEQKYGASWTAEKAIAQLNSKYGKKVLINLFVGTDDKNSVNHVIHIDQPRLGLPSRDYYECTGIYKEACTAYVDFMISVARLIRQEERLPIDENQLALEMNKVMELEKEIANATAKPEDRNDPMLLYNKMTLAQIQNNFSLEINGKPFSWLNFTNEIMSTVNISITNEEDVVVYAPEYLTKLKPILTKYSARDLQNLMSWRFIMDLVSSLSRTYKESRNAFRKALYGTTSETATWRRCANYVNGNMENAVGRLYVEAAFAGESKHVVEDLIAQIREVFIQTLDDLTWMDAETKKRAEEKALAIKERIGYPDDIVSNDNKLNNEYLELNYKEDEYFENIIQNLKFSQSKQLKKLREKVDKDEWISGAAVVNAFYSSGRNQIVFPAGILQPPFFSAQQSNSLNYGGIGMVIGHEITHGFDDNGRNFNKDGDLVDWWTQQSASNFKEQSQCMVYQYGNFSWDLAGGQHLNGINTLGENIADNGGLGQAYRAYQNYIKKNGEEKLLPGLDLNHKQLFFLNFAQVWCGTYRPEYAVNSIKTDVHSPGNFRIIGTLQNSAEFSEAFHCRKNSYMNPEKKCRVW
Procedure: as §1
Arrange a certain volume of 0.04 μg/μL NEP24.11 enzyme solution in another sterile EP.

trypsin = biological target: T1, trypsin (Bos taurus, UniProt P00760); test: in vitro; details: for remaining at 0.025 h, 60 μM / remaining at 0.05 h, 60 μM / remaining at 0.075 h, 60 μM / remaining at 0.1 h, 60 μM / remaining at 0.15 h, 60 μM / remaining at 0.25 h, 60 μM / remaining at 0.5 h, 60 μM / remaining at 1 h, 60 μM: isolated enzyme trypsin, pH 7.8
T1 sequence (P00760 24-246): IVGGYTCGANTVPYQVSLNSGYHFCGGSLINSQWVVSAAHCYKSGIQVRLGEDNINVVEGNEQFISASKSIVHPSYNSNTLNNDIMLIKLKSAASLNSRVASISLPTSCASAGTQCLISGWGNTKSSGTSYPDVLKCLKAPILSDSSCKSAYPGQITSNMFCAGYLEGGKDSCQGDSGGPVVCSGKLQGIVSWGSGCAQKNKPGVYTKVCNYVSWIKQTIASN
Procedure: FIG. 17. […] At different time point, 25 μL aliquots was taken out, and 10% (v/v) TFA was added to terminate the reaction.
as §1
(§2) Arrange a certain volume of 0.05 μg/μL trypsin solution in another sterile EP. Incubate the EP tubes containing peptides and enzymes at 37° C. for 5 min, and separately add 6 μL of trypsin solution to each EP tube containing peptides and mix well. Start timing and extract 25 μL of reaction solution at 1.5, 3.0, 4.5, 6.0 and 9.0 min later, respectively. Add 3.75 μL of 10% TFA to terminate the reaction and mix well by centrifugation at 8000 rpm for 30 seconds.
as §2, with “and” for “and separately”, “9” for “6”, “6.0, 9.0, 15.0, 30.0,” for “6.0”, “60.0” for “9.0”
Referring to the experimental method in Example 5, in vitro stability of salmon Calcitonin analogs with oral administration activity to the enzymatic hydrolysis by trypsin, chymotrypsin and elastase were performed.
Referring to the experimental method in Example 5, in vitro stability of IL-17A inhibitory peptides towards the enzymatic hydrolysis by trypsin, chymotrypsin and elastase were performed.

remaining at 0.025 h, 60 μM (chymotrypsin) [%] | remaining at 0.05 h, 60 μM (chymotrypsin) [%] | remaining at 0.075 h, 60 μM (chymotrypsin) [%] | remaining at 0.1 h, 60 μM (chymotrypsin) [%] | remaining at 0.15 h, 60 μM (chymotrypsin) [%] | remaining at 0.025 h, 60 μM (trypsin) [%] | remaining at 0.05 h, 60 μM (trypsin) [%] | remaining at 0.075 h, 60 μM (trypsin) [%] | remaining at 0.1 h, 60 μM (trypsin) [%] | Structure (SMILES) | Remaining peak area (%)/DPP-IV (DPP-IV) [%] | remaining at 0.5 h, 25 μM (DPP-IV) [%] | remaining at 2 h, 25 μM (DPP-IV) [%] | remaining at 4 h, 25 μM (DPP-IV) [%] | remaining at 8 h, 25 μM (DPP-IV) [%] | remaining at 12 h, 25 μM (DPP-IV) [%] | Remaining peak area (%)/NEP24.11 (NEP24.11) [%] | remaining at 0.5 h, 30 μM (NEP24.11) [%] | remaining at 2 h, 30 μM (NEP24.11) [%] | remaining at 4 h, 30 μM (NEP24.11) [%] | remaining at 8 h, 30 μM (NEP24.11) [%] | also measured
69 ± 4.4 | 58.1 ± 4.9 | 53.2 | 23.1 ± 0.9 | 23.5 ± 0.2 | 90.9 ± 3.6 | 96.4 ± 4.9 | 91.4 ± 3.2 | 93.2 ± 7 | CC[C@H](C)[C@H](NC(=O)[C@H](Cc1ccccc1)NC(=O)[C@H](CCC(=O)O)NC(=O)[C@H](CCCCN)NC(=O)[C@H](C)NC(=O)[C@H](C)NC(=O)[C@H](CCC(N)=O)NC(=O)CNC(=O)[C@H](CCC(=O)O)NC(=O)[C@H](CC(C)C)NC(=O)[C@H](Cc1ccc(O)cc1)NC(=O)[C@H](CO)NC(=O)[C@H](CO)NC(=O)[C@@H](NC(=O)[C@H](CC(=O)O)NC(=O)[C@H](CO)NC(=O)[C@@H](NC(=O)[C@H](Cc1ccccc1)NC(=O)[C@@H](NC(=O)CNC(=O)[C@H](CCC(=O)O)NC(=O)[C@H](C)NC(=O)[C@H](Cc1c[nH]cn1)NC(=O)CNC(=O)CNC(=O)[C@H](CCCNC(=N)N)NC(=O)[C@H](CO)NC(=O)[C@H](Cc1ccccc1)NC(=O)[C@H](CCCNC(=N)N)NC(=O)[C@H](CCC(N)=O)NC(=O)CNC(=O)CNC(=O)[C@@H]1CCCN1C(=O)[C@H](Cc1ccccc1)NC(=O)[C@@H]1CSSC[C@H](NC(=O)[C@H](CCCNC(=N)N)NC(=O)CN)C(=O)N[C@@H]([C@@H](C)O)C(=O)N[C@@H](CCCCN)C(=O)N[C@@H](CO)C(=O)N[C@@H]([C@@H](C)CC)C(=O)N2CCC[C@H]2C(=O)N2CCC[C@H]2C(=O)N[C@@H]([C@@H](C)CC)C(=O)N1)[C@@H](C)O)[C@@H](C)O)C(C)C)C(=O)N[C@@H](C)C(=O)N[C@@H](Cc1c[nH]c2ccccc12)C(=O)N[C@@H](CC(C)C)C(=O)N[C@H](C(=O)N[C@@H](CCCCN)C(=O)NCC(=O)N[C@@H](CCCNC(=N)N)C(=O)NCC(=O)NCC(=O)N[C@@H](CCCCN)C(=O)O)C(C)C [BT1-N-GLP-1] | 100.0 ± 0.0 | 88.9 ± 0.8 | 87 ± 2.7 | 85.8 ± 1.8 | 87.3 ± 2 | 84.8 ± 1.6 | 100.0 ± 0.0 | 90.8 ± 7.1 | 78.8 ± 8 | 77.8 ± 4.3 | 71.7 ± 4.9 | remaining at 0.15 h, 60 μM (trypsin): 88.8 ± 4%; remaining at 0.25 h, 60 μM (trypsin): 90 ± 4.4%; remaining at 0.5 h, 60 μM (trypsin): 91 ± 6.6%; remaining at 1 h, 60 μM (trypsin): 88.9 ± 3%
77.1 ± 1.8 | 57.7 ± 2 | 50.4 ± 3.2 | 41.2 ± 3.1 | 26 ± 2.9 | 90.8 ± 0.5 | 90.4 ± 2 | 91 ± 2.1 | 91.1 ± 3 | CC[C@H](C)[C@H](NC(=O)[C@H](Cc1ccccc1)NC(=O)[C@H](CCC(=O)O)NC(=O)[C@H](CCCCN)NC(=O)[C@H](C)NC(=O)[C@H](C)NC(=O)[C@H](CCC(N)=O)NC(=O)CNC(=O)[C@H](CCC(=O)O)NC(=O)[C@H](CC(C)C)NC(=O)[C@H](Cc1ccc(O)cc1)NC(=O)[C@H](CO)NC(=O)[C@H](CO)NC(=O)[C@@H](NC(=O)[C@H](CC(=O)O)NC(=O)[C@H](CO)NC(=O)[C@@H](NC(=O)[C@H](Cc1ccccc1)NC(=O)[C@@H](NC(=O)CNC(=O)[C@H](CCC(=O)O)NC(=O)[C@H](C)NC(=O)[C@H](Cc1c[nH]cn1)NC(=O)CNC(=O)CNC(=O)[C@H](CCCNC(=N)N)NC(=O)[C@H](CO)NC(=O)[C@H](Cc1ccccc1)NC(=O)[C@H](CCCNC(=N)N)NC(=O)[C@H](CCC(N)=O)NC(=O)CNC(=O)CNC(=O)[C@H](Cc1ccccc1)NC(=O)[C@@H]1CSSC[C@H](N)C(=O)NCC(=O)N[C@@H](CCCNC(=N)N)C(=O)N[C@@H](C)C(=O)N[C@@H]([C@@H](C)O)C(=O)N[C@@H](CCCCN)C(=O)N[C@@H](CO)C(=O)N[C@@H]([C@@H](C)CC)C(=O)N2CCC[C@H]2C(=O)N2CCC[C@H]2C(=O)N[C@@H]([C@@H](C)CC)C(=O)N1)[C@@H](C)O)[C@@H](C)O)C(C)C)C(=O)N[C@@H](C)C(=O)N[C@@H](Cc1c[nH]c2ccccc12)C(=O)N[C@@H](CC(C)C)C(=O)N[C@H](C(=O)N[C@@H](CCCCN)C(=O)NCC(=O)N[C@@H](CCCNC(=N)N)C(=O)NCC(=O)NCC(=O)N[C@@H](CCCCN)C(=O)O)C(C)C [BT9-N-GLP-1] | 100.0 ± 0.0 | 92.5 ± 1.5 | 88 ± 1.8 | 79.4 ± 2.2 | 76.1 ± 1.4 | 71.2 ± 2.1 | 100.0 ± 0.0 | 76.4 ± 1.1 | 63.5 ± 1.9 | 47 ± 4.3 | 41.8 ± 2.7 | remaining at 0.15 h, 60 μM (trypsin): 90.9 ± 3.1%; remaining at 0.25 h, 60 μM (trypsin): 86.6 ± 3.5%; remaining at 0.5 h, 60 μM (trypsin): 86.5 ± 3.5%; remaining at 1 h, 60 μM (trypsin): 74.4 ± 2.6%
97 ± 5.7 | 89.8 ± 0.9 | 85.1 ± 4.4 | 84.3 ± 2 | 78.2 ± 2.1 | 68.3 ± 5.9 | 44.9 ± 3.5 | 21.2 ± 1.1 | 0 | CC[C@H](C)[C@H](NC(=O)[C@H](Cc1ccccc1)NC(=O)[C@H](CCC(=O)O)NC(=O)[C@H](CCCCN)NC(=O)[C@H](C)NC(=O)[C@H](C)NC(=O)[C@H](CCC(N)=O)NC(=O)CNC(=O)[C@H](CCC(=O)O)NC(=O)[C@H](CC(C)C)NC(=O)[C@H](Cc1ccc(O)cc1)NC(=O)[C@H](CO)NC(=O)[C@H](CO)NC(=O)[C@@H](NC(=O)[C@H](CC(=O)O)NC(=O)[C@H](CO)NC(=O)[C@@H](NC(=O)[C@H](Cc1ccccc1)NC(=O)[C@@H](NC(=O)CNC(=O)[C@H](CCC(=O)O)NC(=O)[C@H](C)NC(=O)[C@H](Cc1c[nH]cn1)NC(=O)CNC(=O)CNC(=O)[C@@H](NC(=O)[C@@H]1CCCN1C(=O)[C@@H](NC(=O)CNC(=O)CNC(=O)[C@H](CCCNC(=N)N)NC(=O)[C@H](CO)NC(=O)[C@H](Cc1ccccc1)NC(=O)[C@H](CCCNC(=N)N)NC(=O)[C@H](CCC(N)=O)NC(=O)CNC(=O)CNC(=O)[C@@H]1CSSC[C@H](N)C(=O)N2CCC[C@H]2C(=O)N[C@@H](CCCCN)C(=O)N[C@@H]([C@@H](C)CC)C(=O)N[C@@H](CC(C)C)C(=O)N[C@@H](CCC(N)=O)C(=O)N[C@@H](CCCNC(=N)N)C(=O)N1)[C@@H](C)CC)[C@@H](C)CC)[C@@H](C)O)[C@@H](C)O)C(C)C)C(=O)N[C@@H](C)C(=O)N[C@@H](Cc1c[nH]c2ccccc12)C(=O)N[C@@H](CC(C)C)C(=O)N[C@H](C(=O)N[C@@H](CCCCN)C(=O)NCC(=O)N[C@@H](CCCNC(=N)N)C(=O)NCC(=O)NCC(=O)N[C@@H](CCCCN)C(=O)O)C(C)C [DNT-GLP-1] | 100.0 ± 0.0 | 108 ± 9.3 | 108 ± 1.7 | 105 ± 2.3 | 105 ± 1.7 | 97.4 ± 2.1 | 100.0 ± 0.0 | 82.2 ± 1.3 | 79.1 ± 1.7 | 77.9 ± 4.2 | 67.8 ± 4.7 | stability towards trypsin hydrolysis (in words) (trypsin): completely degraded; remaining at 0.15 h, 60 μM (trypsin): 0%
